Data reported in US20240342177A1, “METHODS OF TREATING BRAIN CANCER” (priority 2021, published 2024).

How the values were obtained:
[1] = test system: U-87-MG human glioblastoma cell line; experiment: U-87-MG cell proliferation (Incucyte confluency); format: cell-based; settings: 72 hours with drug, 5-FU concentration, read-out: IC50, inhibiting cell proliferation
Experimental: U-87-MG cells are maintained in DMEM (high glucose)+10% FCS
• 96-well 2D format (triplicate wells per drug concentration). • Cells seeded at 10,000 cells/well>24 hours incubation. • Drugs added 24 hours later and cells incubated a further 72 hours. • Cells imaged every 6 hours using Incucyte ZOOM for cell proliferation (confluency measurement) and evidence of cell death.

[2] = cited from earlier work
[3] = test system: DIPG-7 (DMG); experiment: In vitro efficacy, dose response in DMG neurospheres DIPG-7; settings: Homo sapiens
Experimental: (§1) Assessment of in vitro activity of the composition used in the methods of the present disclosure was undertaken in patient-derived Diffuse Midline Glioma (DMG) neurospheres.
(§2) In particular, activity of the composition against human DMG cells was compared to that of 5-FU, a combination of 5-FU and FA, or a media control.
(§3) The composition used in the methods of the present disclosure was tested at a 5-FU to FA (Leucovorin) ratio of 15:1 (termed ‘Deflexifol’), and compared to 5-FU as a single agent (‘5-FU’); FA (Leucovorin) as a single agent (‘Leucovorin’); or a combination of 5-FU and FA (Leucovorin) (‘5-FU+Leucovorin’).
(§4) The tested concentrations were selected with reference to the clinical maximum tolerated plasma concentration of 5-FU (530 μM), as detailed in Table 5.
(§5) Screening was conducted in a 96-well format, with N=4 curves, using: • three different DMG cell lines: P002306, DIPG-7 and RA055 • one ependymoma culture and • one set of healthy astrocytes (control model system).

[4] = test system: P008480 (Ependymoma); experiment: In vitro efficacy, dose response in ependymoma culture
Experimental: as §3, §5

[5] = test system: P002306 (DMG); experiment: In vitro efficacy, dose response in DMG neurospheres P002306
Experimental: as §1, §2, §3, §4, §5

[6] = test system: P000302 (Healthy cells); experiment: In vitro dose response in healthy astrocytes (control model system)
Experimental: as §3, §5

[7] = test system: RA055 (DMG); experiment: In vitro efficacy, dose response in DMG neurospheres RA055
Experimental: as §1, §2, §3, §4, §5

## O=c1[nH]cc(F)c(=O)[nH]1 [5-FU, 5-fluoro-2,4 (1H,3H)-pyrimidinedione]
[1]
  IC50: 120 µM
[2]; human, in vivo
  clinical maximum tolerated plasma concentration: 530 µM
[2]; i.v.b.
  human tolerability of i.v.b. administration: approximately 500 mg/mg^2
[3]
  IC50: ~22.3 µM
[4]; Homo sapiens
  IC50: > 500 µM
[4]; P008480 (Ependymoma)
  AUC (dose response): AUC: 373.2
[5]; Homo sapiens
  IC50: ~1.9 µM
[5]; P002306 (DMG)
  AUC (dose response): AUC: 171.4
[6]; Homo sapiens, Astrocyte
  IC50: ~500 µM
[6]; P000302 (Healthy cells)
  AUC (dose response): AUC: 294.3
[7]; Homo sapiens
  IC50: ~200 µM
[7]; RA055 (DMG)
  AUC (dose response): AUC: 332.6
